In patent US7858635B2 (priority 2005, dated 2010):

Key:
M4 muscarinic receptor = biological target: T1, M4 muscarinic receptor (Homo sapiens, UniProt P08173); assay: Functional mobilization of intracellular calcium (FLIPR, Fluo-3), M4-CHO cells; assay type: cell-based; settings: compound nos. 1-454; for Emax: 100% efficacy is the maximum response obtained with the Carbachol control, read-out: M4 Efficacy; for M4 Activity: M4-CHO cells, calcium mobilization
T1 construct: expressed in transfected cells; host or cells: CHO cells (M4-CHO, under puromycin, zeocin and blasticidin selection)
T1 sequence (P08173 1-479): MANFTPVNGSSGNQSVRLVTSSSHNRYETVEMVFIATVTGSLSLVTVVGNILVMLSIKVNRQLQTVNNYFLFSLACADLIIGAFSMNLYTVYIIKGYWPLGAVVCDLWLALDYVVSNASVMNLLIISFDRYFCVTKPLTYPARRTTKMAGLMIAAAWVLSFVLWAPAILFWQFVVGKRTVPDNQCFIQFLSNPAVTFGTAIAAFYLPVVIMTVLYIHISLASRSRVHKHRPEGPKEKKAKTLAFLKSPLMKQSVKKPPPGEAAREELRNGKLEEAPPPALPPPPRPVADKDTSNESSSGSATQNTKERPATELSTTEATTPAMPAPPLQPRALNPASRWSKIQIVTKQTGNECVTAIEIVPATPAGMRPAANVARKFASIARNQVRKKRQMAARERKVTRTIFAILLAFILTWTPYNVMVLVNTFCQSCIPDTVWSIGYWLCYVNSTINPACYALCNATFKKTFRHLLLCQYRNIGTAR
In short: (§1)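 Intracellular calcium was tracked by fluorescence (488/540 nm) over 60 sec after compound addition to dye-loaded CHO cells expressing the receptor. Inhibitory activity used a 15 min pre-incubation before carbachol at the subtype EC80.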

M1 muscarinic receptor = biological target: T2, M1 muscarinic receptor (Homo sapiens, UniProt P11229); assay: Functional mobilization of intracellular calcium (FLIPR, Fluo-3), M1-CHO cells; assay type: cell-based; settings: compound nos. 1-454; for Emax: 100% efficacy is the maximum response obtained with the Carbachol control, read-out: M1 Efficacy; for M1 Activity: M1-CHO cells, calcium mobilization
T2 construct: expressed in transfected cells; host or cells: CHO cells (M1-CHO, under zeocin and G418 selection)
T2 sequence (P11229 1-460): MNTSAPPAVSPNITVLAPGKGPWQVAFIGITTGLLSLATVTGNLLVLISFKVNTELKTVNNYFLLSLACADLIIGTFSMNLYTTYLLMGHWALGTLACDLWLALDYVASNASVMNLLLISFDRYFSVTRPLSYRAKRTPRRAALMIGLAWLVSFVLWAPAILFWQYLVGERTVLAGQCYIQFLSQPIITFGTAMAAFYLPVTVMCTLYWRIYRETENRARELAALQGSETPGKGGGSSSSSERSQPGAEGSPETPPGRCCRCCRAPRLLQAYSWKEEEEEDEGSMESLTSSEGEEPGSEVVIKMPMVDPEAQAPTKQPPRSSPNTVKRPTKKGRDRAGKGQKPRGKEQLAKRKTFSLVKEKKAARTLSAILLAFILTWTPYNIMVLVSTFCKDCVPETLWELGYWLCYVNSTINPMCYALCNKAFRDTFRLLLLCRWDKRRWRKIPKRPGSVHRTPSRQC
In short: as §1

Row | SMILES | Emax (M4 muscarinic receptor) | M4 Activity (M4 muscarinic receptor) | Emax (M1 muscarinic receptor) | M1 Activity (M1 muscarinic receptor)
1 | CN(C)C(=O)N1C2CCC1CC(N1CCC3(CC1)COc1ccc(F)cc13)C2 (centres unmarked) [compound 203] | < 55% | ++ (activity was measured to be between 0.1 μM and 4.0 μM) | 65 to 85% | +++ (activity was measured to be less than or equal to 0.7 μM)
2 | Fc1ccc2c(c1)C1(CCN([C@H]3C[C@@H]4CC[C@@H]3C4)CC1)CO2 [compound 204] | < 55% | + (activity was measured to be greater than or equal to 4.0 μM) | 65 to 85% | +++ (activity was measured to be less than or equal to 0.7 μM)
3 | CCOC(=O)N1C2CCC1CC(N1CCC3(CC1)CN(C(C)=O)c1ccccc13)C2 (centres unmarked) [compound 205] | < 55% | + (activity was measured to be greater than or equal to 4.0 μM) | < 65% | + (activity was measured to be greater than or equal to 3.0 μM)
4 | CC(=O)N[C@H]1CC2(CCN(C3CCOCC3)CC2)c2ccccc21 [compound 206] | < 55% | + (activity was measured to be greater than or equal to 4.0 μM) | 65 to 85% | +++ (activity was measured to be less than or equal to 0.7 μM)
5 | Fc1ccc2c(c1)C1(CCN(C[C@H]3C[C@H]4CC[C@H]3C4)CC1)CO2 [compound 207] | < 55% | + (activity was measured to be greater than or equal to 4.0 μM) | 65 to 85% | ++ (activity was measured to be between 0.7 μM and 3.0 μM)
6 | Cc1ccc2c(c1)C1(CCN(C3CC4CCC3C4)CC1)CN2C(=O)c1cc(C)on1 (centres unmarked) [compound 208] | < 55% | + (activity was measured to be greater than or equal to 4.0 μM) | < 65% | ++ (activity was measured to be between 0.7 μM and 3.0 μM)
7 | CN(C)C(=O)N1CC2(CCN(C3CCN(C(=O)O[C@@H]4CCOC4)CC3)CC2)c2cc(F)ccc21 [compound 209] | < 55% | + (activity was measured to be greater than or equal to 4.0 μM) | > 85% | ++ (activity was measured to be between 0.7 μM and 3.0 μM)
8 | CC(=O)N1CC2(CCN(C3CCCCCC3)CC2)c2cc(F)ccc21 [compound 210] | < 55% | + (activity was measured to be greater than or equal to 4.0 μM) | 65 to 85% | ++ (activity was measured to be between 0.7 μM and 3.0 μM)
9 | Cc1ccc2c(c1)C1(CCN(C3CC4CCC3C4)CC1)CN2C(=O)c1cc(C)n(C)n1 (centres unmarked) [compound 211] | < 55% | + (activity was measured to be greater than or equal to 4.0 μM) | 65 to 85% | + (activity was measured to be greater than or equal to 3.0 μM)
10 | O=C(O[C@H]1CCOC1)N1C2CCC1CC(N1CCC3(CC1)COc1ccc(F)cc13)C2 (some centres unmarked) [compound 212] | < 55% | + (activity was measured to be greater than or equal to 4.0 μM) | < 65% | + (activity was measured to be greater than or equal to 3.0 μM)
11 | CC(=O)NC1CC2(CCN(C[C@H]3C[C@H]4C=C[C@H]3C4)CC2)c2ccccc21 (some centres unmarked) [compound 213] | < 55% | + (activity was measured to be greater than or equal to 4.0 μM) | 65 to 85% | ++ (activity was measured to be between 0.7 μM and 3.0 μM)
12 | CCOC(=O)N1C2CCC1CC(N1CCC3(CC1)CN(C(=O)C1CC1)c1ccc(F)cc13)C2 (centres unmarked) [compound 214] | < 55% | + (activity was measured to be greater than or equal to 4.0 μM) | < 65% | + (activity was measured to be greater than or equal to 3.0 μM)
13 | COCCOC(=O)N1C2CCC1CC(N1CCC3(CC1)CN(C(=O)O[C@@H]1CCOC1)c1ccc(F)cc13)C2 (some centres unmarked) [compound 216] | < 55% | + (activity was measured to be greater than or equal to 4.0 μM) | > 85% | +++ (activity was measured to be less than or equal to 0.7 μM)
14 | O=C(OC1CCC1)N1C2CCC1CC(N1CCC3(CC1)C(=O)Nc1ccccc13)C2 (centres unmarked) [compound 217] | < 55% | + (activity was measured to be greater than or equal to 4.0 μM) | < 65% | ++ (activity was measured to be between 0.7 μM and 3.0 μM)
15 | CCNC(=O)N1C2CCC1CC(N1CCC3(CC1)COc1ccc(F)cc13)C2 (centres unmarked) [compound 219] | < 55% | + (activity was measured to be greater than or equal to 4.0 μM) | 65 to 85% | + (activity was measured to be greater than or equal to 3.0 μM)
16 | CCCCOC(=O)N1CC2(CCN(C3CCN(C(=O)OCC)CC3)CC2)c2cc(F)ccc21 [compound 220] | < 55% | + (activity was measured to be greater than or equal to 4.0 μM) | 65 to 85% | + (activity was measured to be greater than or equal to 3.0 μM)
17 | CCOC(=O)N1CCC(N2CCC3(CC2)CN(C(C)=O)c2ccc(-c4ccc(C(C)=O)cc4)cc23)CC1 [compound 221] | < 55% | + (activity was measured to be greater than or equal to 4.0 μM) | 65 to 85% | ++ (activity was measured to be between 0.7 μM and 3.0 μM)
18 | CCOC(=O)N1C2CCC1CC(N1CCC3(CC1)CN(C(=O)c1ccc(F)cc1)c1ccc(F)cc13)C2 (centres unmarked) [compound 222] | < 55% | + (activity was measured to be greater than or equal to 4.0 μM) | < 65% | + (activity was measured to be greater than or equal to 3.0 μM)
19 | CCOC(=O)N1CCC(N2CCC3(CC2)CN(C(=O)N(CC)CC)c2ccc(F)cc23)CC1 [compound 223] | < 55% | + (activity was measured to be greater than or equal to 4.0 μM) | < 65% | + (activity was measured to be greater than or equal to 3.0 μM)
20 | Clc1ccc2c(c1)C1(CCN(C3CC4CCC3C4)CC1)CN2 (centres unmarked) [compound 224] | < 55% | + (activity was measured to be greater than or equal to 4.0 μM) | 65 to 85% | + (activity was measured to be greater than or equal to 3.0 μM)
21 | CCOC(=O)N1CCC(N2CCC3(CC2)CN(C(C)=O)c2ccc(OC(F)(F)F)cc23)CC1 [compound 225] | < 55% | + (activity was measured to be greater than or equal to 4.0 μM) | < 65% | + (activity was measured to be greater than or equal to 3.0 μM)
22 | CC(=O)N1CC2(CCN(C3CCC(C(C)C)CC3)CC2)c2cc(F)ccc21 (centres unmarked) [compound 226] | < 55% | + (activity was measured to be greater than or equal to 4.0 μM) | < 65% | + (activity was measured to be greater than or equal to 3.0 μM)
23 | CS(=O)(=O)N[C@@H]1CC2(CCN(C[C@H]3C[C@H]4CC[C@H]3C4)CC2)c2ccccc21 [compound 227] | > 70% | +++ (activity was measured to be less than or equal to 0.1 μM) | > 85% | +++ (activity was measured to be less than or equal to 0.7 μM)
24 | CCOC(=O)C1CCC(N2CCC3(CC2)CN(C(C)=O)c2ccc(F)cc23)CC1 (centres unmarked) [compound 228] | < 55% | + (activity was measured to be greater than or equal to 4.0 μM) | < 65% | + (activity was measured to be greater than or equal to 3.0 μM)
25 | CCOC(=O)N1CCC(N2CCC3(CC2)CN(CCC(=O)CC)c2ccc(F)cc23)CC1 [compound 229] | > 70% | +++ (activity was measured to be less than or equal to 0.1 μM) | < 65% | ++ (activity was measured to be between 0.7 μM and 3.0 μM)
26 | C#CCCOC(=O)N1C2CCC1CC(N1CCC3(CC1)CN(C(=O)N(C)C)c1ccc(F)cc13)C2 (centres unmarked) [compound 230] | > 70% | ++ (activity was measured to be between 0.1 μM and 4.0 μM) | < 65% | + (activity was measured to be greater than or equal to 3.0 μM)
